Reference: patent US11090313B2, “Methods for inhibiting muscle atrophy” (UNIVERSITY OF IOWA RESEARCH FOUNDATION, priority 2010, dated 2021)

Tested on: gastrocnemius muscle mRNA
Assay: Exon expression arrays of gastrocnemius muscle mRNA in mice fed ursolic acid
Assay type: in vivo, mouse
Settings: 0.27% ursolic acid in chow 5 weeks
Protocol: Following harvest, skeletal muscle samples were immediately placed in RNAlater (Ambion) and stored at −80° C. until further use. […] These raw microarray data from humans and mice have been deposited in NCBI's Gene Expression Omnibus (“GEO”) and are accessible through GEO Series accession numbers GSE28016 and GSE28017, respectively. Exon array studies of the effects of fasting on mouse skeletal muscle, and the effects of spinal cord injury on human skeletal muscle were described previously (Adams C M, et al. (2011) Muscle & nerve 43(1):65-75; Ebert S M, et al. (2010) Molecular Endocrinology 24(4):790-799).
To test this hypothesis, an unbiased approach was used, specifically exon expression arrays were used to analyze gastrocnemius muscle mRNA expression in mice that had been fed diets lacking or containing ursolic acid for 5 weeks. […] Each array assessed pooled gastrocnemius RNA from two mice. Stringent criteria were used for ursolic acid-induced effects on mRNA levels (P<0.005), and mRNAs with low levels of expression were disregarded (i.e. only transcripts that were increased to a mean log2 hybridization signal ≥8, or repressed from a mean log2 hybridization signal ≥8 were included).

C[C@H]1[C@H](C)CC[C@]2(C(=O)O)CC[C@]3(C)C(=CC[C@@H]4[C@@]5(C)CC[C@H](O)C(C)(C)[C@@H]5CC[C@]43C)[C@H]12 [ursolic acid]
levels of mRNAs encoding myostatin, twist or myogenin (gastrocnemius): did not alter levels of mRNAs encoding myostatin | levels of IGF1 exons (exons 2-6) (gastrocnemius exon arrays): increased levels of all measured IGF1 exons | 2310016M24Rik mRNA Change (mean log2, ursolic acid diet minus control diet) (mice, gastrocnemius): 0.12 log2 | 2610507B11Rik mRNA Change (mean log2, ursolic acid diet minus control diet) (mice, gastrocnemius): 0.14 log2 | Acadm mRNA Change (mean log2, ursolic acid diet minus control diet) (mice, gastrocnemius): −0.11 log2 | Adprhl1 mRNA Change (mean log2, ursolic acid diet minus control diet) (mice, gastrocnemius): −0.26 log2 | Ahsa2 mRNA Change (mean log2, ursolic acid diet minus control diet) (mice, gastrocnemius): 0.18 log2 | Arfgap2 mRNA Change (mean log2, ursolic acid diet minus control diet) (mice, gastrocnemius): 0.30 log2 | Asb5 mRNA Change (mean log2, ursolic acid diet minus control diet) (mice, gastrocnemius): 0.21 log2 | BC004004 mRNA Change (mean log2, ursolic acid diet minus control diet) (mice, gastrocnemius): 0.06 log2 | C3 mRNA Change (mean log2, ursolic acid diet minus control diet) (mice, gastrocnemius): 0.70 log2 | Cacna1s mRNA Change (mean log2, ursolic acid diet minus control diet) (mice, gastrocnemius): −0.22 log2 | Cd24a mRNA Change (mean log2, ursolic acid diet minus control diet) (mice, gastrocnemius): 0.28 log2 | Ctsb mRNA Change (mean log2, ursolic acid diet minus control diet) (mice, gastrocnemius): 0.16 log2 | D0H4S114 mRNA Change (mean log2, ursolic acid diet minus control diet) (mice, gastrocnemius): 0.15 log2 | D4Wsu53e mRNA Change (mean log2, ursolic acid diet minus control diet) (mice, gastrocnemius): −0.18 log2 | Ddit4l mRNA Change (mean log2, ursolic acid diet minus control diet) (mice, gastrocnemius): −0.32 log2 | Eef1e1 mRNA Change (mean log2, ursolic acid diet minus control diet) (mice, gastrocnemius): 0.15 log2 | Eif4g3 mRNA Change (mean log2, ursolic acid diet minus control diet) (mice, gastrocnemius): −0.12 log2 | Fbp2 mRNA Change (mean log2, ursolic acid diet minus control diet) (mice, gastrocnemius): 0.37 log2 | Fbxo32 (Atrogin-1) mRNA Change (mean log2, ursolic acid diet minus control diet) (mice, gastrocnemius): −0.35 log2 | Fhl3 mRNA Change (mean log2, ursolic acid diet minus control diet) (mice, gastrocnemius): 0.31 log2 | Fmo1 mRNA Change (mean log2, ursolic acid diet minus control diet) (mice, gastrocnemius): 0.47 log2 | Foxn3 mRNA Change (mean log2, ursolic acid diet minus control diet) (mice, gastrocnemius): −0.09 log2 | Gfm1 mRNA Change (mean log2, ursolic acid diet minus control diet) (mice, gastrocnemius): 0.12 log2 | Ggct mRNA Change (mean log2, ursolic acid diet minus control diet) (mice, gastrocnemius): 0.24 log2 | Ghitm mRNA Change (mean log2, ursolic acid diet minus control diet) (mice, gastrocnemius): 0.05 log2 | Golga4 mRNA Change (mean log2, ursolic acid diet minus control diet) (mice, gastrocnemius): −0.14 log2 | Gpx1 mRNA Change (mean log2, ursolic acid diet minus control diet) (mice, gastrocnemius): 0.36 log2 | H19 mRNA Change (mean log2, ursolic acid diet minus control diet) (mice, gastrocnemius): 0.39 log2 | Hipk2 mRNA Change (mean log2, ursolic acid diet minus control diet) (mice, gastrocnemius): 0.38 log2 | Hk2 mRNA Change (mean log2, ursolic acid diet minus control diet) (mice, gastrocnemius): 0.26 log2 | Hspb8 mRNA Change (mean log2, ursolic acid diet minus control diet) (mice, gastrocnemius): 0.32 log2 | Hsph1 mRNA Change (mean log2, ursolic acid diet minus control diet) (mice, gastrocnemius): 0.30 log2 | Igf1 mRNA Change (mean log2, ursolic acid diet minus control diet) (mice, gastrocnemius): 0.56 log2 | Klhl31 mRNA Change (mean log2, ursolic acid diet minus control diet) (mice, gastrocnemius): −0.09 log2 | Krr1 mRNA Change (mean log2, ursolic acid diet minus control diet) (mice, gastrocnemius): 0.15 log2 | Lsm14a mRNA Change (mean log2, ursolic acid diet minus control diet) (mice, gastrocnemius): 0.18 log2 | Lum mRNA Change (mean log2, ursolic acid diet minus control diet) (mice, gastrocnemius): 0.61 log2 | Lyz2 mRNA Change (mean log2, ursolic acid diet minus control diet) (mice, gastrocnemius): 0.71 log2 | Mlec mRNA Change (mean log2, ursolic acid diet minus control diet) (mice, gastrocnemius): −0.19 log2 | Mrpl46 mRNA Change (mean log2, ursolic acid diet minus control diet) (mice, gastrocnemius): 0.15 log2 | Musk mRNA Change (mean log2, ursolic acid diet minus control diet) (mice, gastrocnemius): 0.31 log2 | Nampt mRNA Change (mean log2, ursolic acid diet minus control diet) (mice, gastrocnemius): 0.41 log2 | Ndufaf4 mRNA Change (mean log2, ursolic acid diet minus control diet) (mice, gastrocnemius): 0.14 log2 | Ndufs2 mRNA Change (mean log2, ursolic acid diet minus control diet) (mice, gastrocnemius): 0.14 log2 | Ndufs4 mRNA Change (mean log2, ursolic acid diet minus control diet) (mice, gastrocnemius): 0.14 log2 | Nnt mRNA Change (mean log2, ursolic acid diet minus control diet) (mice, gastrocnemius): −0.24 log2 | Npc1 mRNA Change (mean log2, ursolic acid diet minus control diet) (mice, gastrocnemius): 0.22 log2 | Nrap mRNA Change (mean log2, ursolic acid diet minus control diet) (mice, gastrocnemius): −0.14 log2 | Ostn mRNA Change (mean log2, ursolic acid diet minus control diet) (mice, gastrocnemius): 0.43 log2 | Paip2b mRNA Change (mean log2, ursolic acid diet minus control diet) (mice, gastrocnemius): −0.16 log2 | Parp3 mRNA Change (mean log2, ursolic acid diet minus control diet) (mice, gastrocnemius): 0.32 log2 | Pde4dip mRNA Change (mean log2, ursolic acid diet minus control diet) (mice, gastrocnemius): −0.18 log2 | Pdha1 mRNA Change (mean log2, ursolic acid diet minus control diet) (mice, gastrocnemius): 0.18 log2 | Pnn mRNA Change (mean log2, ursolic acid diet minus control diet) (mice, gastrocnemius): −0.18 log2 | Prdx5 mRNA Change (mean log2, ursolic acid diet minus control diet) (mice, gastrocnemius): 0.10 log2 | Psma2 mRNA Change (mean log2, ursolic acid diet minus control diet) (mice, gastrocnemius): 0.15 log2 | Sepp1 mRNA Change (mean log2, ursolic acid diet minus control diet) (mice, gastrocnemius): 0.35 log2 | Sepx1 mRNA Change (mean log2, ursolic acid diet minus control diet) (mice, gastrocnemius): 0.28 log2 | Sfpq mRNA Change (mean log2, ursolic acid diet minus control diet) (mice, gastrocnemius): −0.18 log2 | Sfrs5 mRNA Change (mean log2, ursolic acid diet minus control diet) (mice, gastrocnemius): −0.22 log2 | Smox mRNA Change (mean log2, ursolic acid diet minus control diet) (mice, gastrocnemius): 0.81 log2 | Sod2 mRNA Change (mean log2, ursolic acid diet minus control diet) (mice, gastrocnemius): 0.12 log2 | Sqstm1 mRNA Change (mean log2, ursolic acid diet minus control diet) (mice, gastrocnemius): 0.12 log2 | Ssr4 mRNA Change (mean log2, ursolic acid diet minus control diet) (mice, gastrocnemius): 0.14 log2 | Trappc2l mRNA Change (mean log2, ursolic acid diet minus control diet) (mice, gastrocnemius): 0.16 log2 | Trip10 mRNA Change (mean log2, ursolic acid diet minus control diet) (mice, gastrocnemius): 0.23 log2 | Tyrobp mRNA Change (mean log2, ursolic acid diet minus control diet) (mice, gastrocnemius): 0.69 log2 | Ube2l3 mRNA Change (mean log2, ursolic acid diet minus control diet) (mice, gastrocnemius): 0.16 log2 | Vps29 mRNA Change (mean log2, ursolic acid diet minus control diet) (mice, gastrocnemius): 0.20 log2
